Legend:
Assay in all cases: relative viability (nuclei count vs DMSO), 5 days (fraction); higher = more cells survive
NCI-H596 = tested on: NCI-H596
How it was run: (§1)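 Dosing by pin tool came one day after lung cancer cell lines were seeded in 1536-well plates, using either one drug or a fixed anchor-drug dose plus five library-drug doses (not always all listed) in √10 steps. After 5 days, nuclei were counted on 4× images. Relative viability is treated-well nuclei count divided by vehicle-well nuclei count, and values are medians of duplicate plates.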

LCLC-97TM1 = tested on: LCLC-97TM1
How it was run: as §1

NCI-H520 = tested on: NCI-H520
How it was run: as §1

NCI-H1650 = tested on: NCI-H1650
How it was run: as §1

NCI-H2087 = tested on: NCI-H2087
How it was run: as §1

ABC-1 = tested on: ABC-1
How it was run: as §1

CAL-12T = tested on: CAL-12T
How it was run: as §1

NCI-H1651 = tested on: NCI-H1651
How it was run: as §1

NCI-H2023 = tested on: NCI-H2023
How it was run: as §1

A-427 = tested on: A-427
How it was run: as §1

NCI-H460 = tested on: NCI-H460
How it was run: as §1

PC-3 [JPC-3] = tested on: PC-3 [JPC-3]
How it was run: as §1

BEN = tested on: BEN
How it was run: as §1

LC-2-ad = tested on: LC-2-ad
How it was run: as §1

H3255 = tested on: H3255
How it was run: as §1

NCI-H727 = tested on: NCI-H727
How it was run: as §1

NCI-H1944 = tested on: NCI-H1944
How it was run: as §1

NCI-H661 = tested on: NCI-H661
How it was run: as §1

NCI-H650 = tested on: NCI-H650
How it was run: as §1

NCI-H441 = tested on: NCI-H441
How it was run: as §1

201T = tested on: 201T
How it was run: as §1

NCI-H1915 = tested on: NCI-H1915
How it was run: as §1

CCN(CC)CCCCNc1ncc2cc(-c3cc(OC)cc(OC)c3)c(NC(=O)NC(C)(C)C)nc2n1 + Cc1cc(Nc2cc(N3CCN(C)CC3)nc(Sc3ccc(NC(=O)C4CC4)cc3)n2)n[nH]1 [Tozasertib] (partner 0.1 µM)
relative viability (NCI-H596; first compound 0.01 µM): 0.911 | relative viability (NCI-H596; first compound 0.03162 µM): 0.903 | relative viability (NCI-H596; first compound 0.1 µM): 1.05 | relative viability (NCI-H596; first compound 0.3162 µM): 0.828 | relative viability (NCI-H596; first compound 1 µM): 0.747 | relative viability (LCLC-97TM1; first compound 0.01 µM): 0.236 | relative viability (LCLC-97TM1; first compound 0.03162 µM): 0.268 | relative viability (LCLC-97TM1; first compound 0.1 µM): 0.255 | relative viability (LCLC-97TM1; first compound 0.3162 µM): 0.34 | relative viability (LCLC-97TM1; first compound 1 µM): 0.236 | relative viability (NCI-H520; first compound 0.01 µM): 0.383 | relative viability (NCI-H520; first compound 0.03162 µM): 0.452 | relative viability (NCI-H520; first compound 0.1 µM): 0.486 | relative viability (NCI-H520; first compound 0.3162 µM): 0.388 | relative viability (NCI-H520; first compound 1 µM): 0.261 | relative viability (NCI-H1650; first compound 0.01 µM): 0.362 | relative viability (NCI-H1650; first compound 0.03162 µM): 0.305 | relative viability (NCI-H1650; first compound 0.1 µM): 0.392 | relative viability (NCI-H1650; first compound 0.3162 µM): 0.361 | relative viability (NCI-H1650; first compound 1 µM): 0.247 | relative viability (NCI-H2087; first compound 0.01 µM): 0.243 | relative viability (NCI-H2087; first compound 0.03162 µM): 0.282 | relative viability (NCI-H2087; first compound 0.1 µM): 0.25 | relative viability (NCI-H2087; first compound 0.3162 µM): 0.236 | relative viability (NCI-H2087; first compound 1 µM): 0.251 | relative viability (ABC-1; first compound 0.01 µM): 0.211 | relative viability (ABC-1; first compound 0.03162 µM): 0.21 | relative viability (ABC-1; first compound 0.1 µM): 0.207 | relative viability (ABC-1; first compound 0.3162 µM): 0.148 | relative viability (ABC-1; first compound 1 µM): 0.187 | relative viability (CAL-12T; first compound 0.01 µM): 0.28 | relative viability (CAL-12T; first compound 0.03162 µM): 0.287 | relative viability (CAL-12T; first compound 0.1 µM): 0.368 | relative viability (CAL-12T; first compound 0.3162 µM): 0.257 | relative viability (CAL-12T; first compound 1 µM): 0.293 | relative viability (NCI-H1651; first compound 0.01 µM): 0.747 | relative viability (NCI-H1651; first compound 0.03162 µM): 0.716 | relative viability (NCI-H1651; first compound 0.1 µM): 0.907 | relative viability (NCI-H1651; first compound 0.3162 µM): 0.714 | relative viability (NCI-H1651; first compound 1 µM): 0.661 | relative viability (NCI-H2023; first compound 0.01 µM): 0.323 | relative viability (NCI-H2023; first compound 0.03162 µM): 0.428 | relative viability (NCI-H2023; first compound 0.1 µM): 0.401 | relative viability (NCI-H2023; first compound 0.3162 µM): 0.41 | relative viability (NCI-H2023; first compound 1 µM): 0.222 | relative viability (A-427; first compound 0.01 µM): 0.199 | relative viability (A-427; first compound 0.03162 µM): 0.206 | relative viability (A-427; first compound 0.1 µM): 0.202 | relative viability (A-427; first compound 0.3162 µM): 0.174 | relative viability (A-427; first compound 1 µM): 0.182 | relative viability (NCI-H460; first compound 0.01 µM): 0.458 | relative viability (NCI-H460; first compound 0.03162 µM): 0.66 | relative viability (NCI-H460; first compound 0.1 µM): 0.477 | relative viability (NCI-H460; first compound 0.3162 µM): 0.474 | relative viability (NCI-H460; first compound 1 µM): 0.311 | relative viability (PC-3 [JPC-3]; first compound 0.01 µM): 0.988 | relative viability (PC-3 [JPC-3]; first compound 0.03162 µM): 0.958 | relative viability (PC-3 [JPC-3]; first compound 0.1 µM): 1.09 | relative viability (PC-3 [JPC-3]; first compound 0.3162 µM): 0.892 | relative viability (PC-3 [JPC-3]; first compound 1 µM): 0.632 | relative viability (BEN; first compound 0.01 µM): 0.371 | relative viability (BEN; first compound 0.03162 µM): 0.508 | relative viability (BEN; first compound 0.1 µM): 0.515 | relative viability (BEN; first compound 0.3162 µM): 0.489 | relative viability (BEN; first compound 1 µM): 0.507 | relative viability (LC-2-ad; first compound 0.01 µM): 0.416 | relative viability (LC-2-ad; first compound 0.03162 µM): 0.467 | relative viability (LC-2-ad; first compound 0.1 µM): 0.433 | relative viability (LC-2-ad; first compound 0.3162 µM): 0.483 | relative viability (LC-2-ad; first compound 1 µM): 0.453 | relative viability (H3255; first compound 0.01 µM): 0.91 | relative viability (H3255; first compound 0.03162 µM): 0.654 | relative viability (H3255; first compound 0.1 µM): 0.544 | relative viability (H3255; first compound 0.3162 µM): 0.607 | relative viability (H3255; first compound 1 µM): 0.585 | relative viability (NCI-H727; first compound 0.01 µM): 0.661 | relative viability (NCI-H727; first compound 0.03162 µM): 0.521 | relative viability (NCI-H727; first compound 0.1 µM): 0.571 | relative viability (NCI-H727; first compound 0.3162 µM): 0.659 | relative viability (NCI-H727; first compound 1 µM): 0.525 | relative viability (NCI-H1944; first compound 0.01 µM): 0.25 | relative viability (NCI-H1944; first compound 0.03162 µM): 0.27 | relative viability (NCI-H1944; first compound 0.1 µM): 0.248 | relative viability (NCI-H1944; first compound 0.3162 µM): 0.249 | relative viability (NCI-H1944; first compound 1 µM): 0.213 | relative viability (NCI-H661; first compound 0.01 µM): 0.38 | relative viability (NCI-H661; first compound 0.03162 µM): 0.327 | relative viability (NCI-H661; first compound 0.1 µM): 0.366 | relative viability (NCI-H661; first compound 0.3162 µM): 0.36 | relative viability (NCI-H661; first compound 1 µM): 0.36 | relative viability (NCI-H650; first compound 0.01 µM): 0.714 | relative viability (NCI-H650; first compound 0.03162 µM): 0.757 | relative viability (NCI-H650; first compound 0.1 µM): 0.765 | relative viability (NCI-H650; first compound 0.3162 µM): 0.704 | relative viability (NCI-H650; first compound 1 µM): 0.66 | relative viability (NCI-H441; first compound 0.01 µM): 0.544 | relative viability (NCI-H441; first compound 0.03162 µM): 0.714 | relative viability (NCI-H441; first compound 0.1 µM): 0.821 | relative viability (NCI-H441; first compound 0.3162 µM): 0.616 | relative viability (NCI-H441; first compound 1 µM): 0.597 | relative viability (201T; first compound 0.01 µM): 0.995 | relative viability (201T; first compound 0.03162 µM): 0.992 | relative viability (201T; first compound 0.1 µM): 0.979 | relative viability (201T; first compound 0.3162 µM): 1.02 | relative viability (201T; first compound 1 µM): 0.721 | relative viability (NCI-H1915; first compound 0.01 µM): 0.464 | relative viability (NCI-H1915; first compound 0.03162 µM): 0.489 | relative viability (NCI-H1915; first compound 0.1 µM): 0.48 | relative viability (NCI-H1915; first compound 0.3162 µM): 0.461 | relative viability (NCI-H1915; first compound 1 µM): 0.348

Reference: the supplement of paper PMC10307832
